Counter-ions that a name gives are not always drawn.
How the values were obtained:
HEK293T cell line = assay: Intracellular Ca2+ concentration by confocal laser scanning microscopy (CLSM), Fluo-3-AM; format: cell-based, human; conditions: HEK293T cells; for Ca2+ release performance: compared to the control rasagiline and the comparator (R)-phenylpiracetam, FIGS. 2 and 3
Method: To detect intracellular Ca^2+ levels, the HEK293T cell line, human renal epithelial cells, were seeded in 35 mm diameter confocal dishes 24 hours before the experiment and then were cultured to 40-60% confluency. The cells were loaded with […] fluorescent […] calcium indicator Fluo-3-acetoxymethyl (Fluo-3-AM; Invitrogen) for 30 min at 37° C. The concentration of Ca^2+ was determined using CLSM (Zeiss LSM 700 Meta; Zeiss, Oberkochen, Germany). […] The excitation and emission wavelengths for signal detection were 488 nm and 515 nm, respectively. Analysis of intracellular calcium intensity was performed using Zen software (Carl Zeiss).

GDF-8/Myostatin [1] = assay: Human skeletal myoblast (HSKM) differentiation induction test, ELISA of culture supernatant: GDF-8/Myostatin; format: cell-based; conditions: compared to IGF-1 and (R)-phenylpiracetam treatment groups, FIG. 4
Method: (§1) For the human skeletal myoblast (HSKM) differentiation induction test, human skeletal myoblasts (3×10^5 cells/well) were prepared in 24-well plates. Then, these cells were treated with the test substances and incubated in a 37° C., CO2 incubator for 48 hours. After 24 and 48 hours of incubation, the cell culture supernatant was collected into an E-tube and stored in a deep freezer. For ELISA analysis, the supernatant was thawed and prepared. ELISA analysis was performed based on the test method presented in the ELISA kit.

SMAD2 = assay: Human skeletal myoblast (HSKM) differentiation induction test, ELISA: SMAD2; format: cell-based; conditions: compared to (R)-phenylpiracetam treatment group, FIG. 5(a)
Method: as §1

SMAD3 = assay: Human skeletal myoblast (HSKM) differentiation induction test, ELISA: SMAD3; format: cell-based; conditions: compared to (R)-phenylpiracetam treatment group, FIG. 5(b)
Method: as §1

SYP (synaptophysin) = assay: mRNA expression by real-time PCR in MPTP-treated SH-SY5Y cells: SYP; format: cell-based, human; conditions: 2.5 mM MPTP, compared to MPTP alone, FIG. 6(a)
Method: (§2) After inducing an inflammatory response by treating a human neuroblastoma SH-SY5Y cell line with 2.5 mM MPTP (1-methyl-4-phenyl-1,2,3,6-tetrahydropyridine), the mRNA expression of SYP (synaptophysin), GAP-43 (Growth-associated protein-43), MAO-B (Monoamine oxidase-B), and iNOS (inducible nitric oxide synthase) was confirmed by real-time PCR.

[2] = tested on: Parkinson's disease mouse MPTP model; assay: Open field test (OFT); format: in vivo, mice; conditions: for total distance moved in the open field test: 10 mg/kg, compared to (R)-phenylpiracetam, MPTP alone and Selegiline treatment groups
Method: (§3) Six-month-old normal mice were acclimated for one week, trained for behavioral testing, and then randomly divided into groups. To construct a Parkinson's disease mouse MPTP model, mice were treated with the chiral gamma-lactam derivative of the present disclosure or a pharmaceutically acceptable salt thereof (dissolved in 0.9% saline, intraperitoneally injected (ip)) for 3 days, and then were treated with MPTP (dissolved in 0.9% saline, ip) for 5 consecutive days. […] For the control mice group, the same volume of saline solution (ip) was provided. Two days after the last injection, the efficacy was confirmed by an open field test (OFT), forced swim test (FST), rotarod test, and pilocarpine-induced seizure evaluation.
To measure general motor activity levels and behavioral anxiety of the mice, an open field test was performed. (1) First, 30 minutes before performing the open field test, the chiral gamma-lactam derivative of the present disclosure or a pharmaceutically acceptable salt thereof and a vehicle (saline, test drug) were injected intraperitoneally to the mice and their behavior was video recorded for 10 minutes. (2) Video analysis was used to check for sedation and measure the distance the mice moved.

[3] = tested on: Parkinson's disease mouse MPTP model; assay: Forced swim test (FST); format: in vivo; conditions: MPTP mice, FIG. 8; for immobility time in the forced swim test: ip 30 minutes before the test, compared to the MPTP alone treatment group
Method: as §3
The forced swim test (FST) was performed to induce depressive behavior in mice. (1) First, a 2 L beaker was filled with water (25±1° C.) until the water was about 10 cm deep, and the mouse was allowed to swim. The mouse was returned to the breeding cage after 6 minutes. (2) The restraint stress group was confined in a restraint tube for 90 minutes until 60 minutes before the forced swim test was to be performed, and then the mouse was allowed to swim as mentioned in (1). Thereafter, the mouse was returned to the breeding cage. (3) In this case, the chiral gamma-lactam derivative of the present disclosure or a pharmaceutically acceptable salt thereof (saline, test drug) was injected into the abdominal cavity 30 minutes before the forced swim test was performed. Immobility time was measured for 4 minutes out of the 6 minutes and these measurements were compared between groups.

[4] = tested on: Parkinson's disease mouse MPTP model; assay: Rotarod test (latency to fall), 5 weeks; format: in vivo; conditions: MPTP mice; for motility in the rotarod test (latency to fall): compared to the control group and the MPTP alone treatment group, FIG. 9(a)
Method: as §3
(§4) To evaluate the walking and motor abilities of the lower extremities of mice, a rotarod test was performed for 5 weeks. Motor coordination and balance were assessed by placing the mice on a rotating bar and measuring the time until they fell therefrom (latency to fall). MPTP was injected intraperitoneally into the mice at a concentration of 30 mg/kg for 5 consecutive days. One week after the MPTP was injected, MPTP was administered to the mice intraperitoneally (15 mg/kg) twice a week. The rotarod consists of a rotatable cylindrical rod with a diameter of 7 cm, located at a height of 60 cm and six baffles spaced at 15 cm intervals. Then, mice were placed on the rod while the rod was rotated for 180 seconds at a speed of 5 to 50 rpm (maximum speed) and the latency to fall was measured. At this time, the mice were sufficiently trained to be acclimated during the experimental period.

[5] = tested on: tibialis anterior (TA) and extensor digitorum longus (EDL) muscle; assay: Muscle weight after the five-week rotarod test; format: in vivo; conditions: MPTP mice, after five weeks; for tibialis anterior (TA) muscle weight: FIG. 9(b); for extensor digitorum longus (EDL) muscle weight: FIG. 9(c)
Method: as §4

[6] = tested on: pilocarpine-induced seizure mouse model; assay: Evaluation of pilocarpine-induced seizures; format: in vivo; conditions: male C57BL/6J mice, 15 mg ip 25 minutes before pilocarpine 330 mg/kg, monitored for 24 hours; compared to the control group; FIG. 10
Method: A pilocarpine-induced seizure mouse model was created to study changes in brain activity. Pilocarpine is an agonist that binds to muscarinic cholinergic receptors in nerve cells and increases cell activity, and is used to create a mesial temporal lobe epilepsy model.
The present experiment was performed on surgically operated-on male C57BL/6J mice under a constant environmental condition (24-25° C., 50-60% humidity, 12-hour light/dark cycle). […] Pilocarpine (Sigma, Deisenhofen, Germany) was injected intraperitoneally into the mouse at a single dose of 330 mg/kg, and behavioral and electrophysiological seizure patterns were monitored for 24 hours. […]
The seizure patterns were divided into the following five types, and cases (4) and (5) were defined as convulsive seizures and analyzed for their frequency and duration: (0) no convulsive behavior; (1) facial clonus; (2) head nodding; (3) forelimb clonus; (4) rearing: animal in a standing posture aided by tail and the laterally spread hindlimbs showing increased tone; (5) rearing and falling back.

GDF-8/Myostatin [7] = assay: Expression of the sarcopenia-related marker GDF-8/Myostatin in mouse serum; format: in vivo; conditions: MPTP mice, 15 mg/kg ip twice a week for 5 weeks, FIG. 11; for expression level of GDF-8/Myostatin in mouse serum: compared to IGF-1 and (R)-phenylpiracetam treatment groups
Method: MPTP was injected intraperitoneally into the mouse at a concentration of 30 mg/kg for 5 consecutive days. One week after the MPTP was injected, the chiral gamma-lactam derivative of the present disclosure or a pharmaceutically acceptable salt thereof (Ph-10, 20, 30) was administered intraperitoneally to the mouse at a concentration of 15 mg/kg twice a week, for 5 weeks, and the changes in the expression level of GDF-8/Myostatine, a sarcopenia-related marker in mouse serum, were determined.

[8] = tested on: GAP-43 (Growth-associated protein-43); assay: mRNA expression by real-time PCR in MPTP-treated SH-SY5Y cells: GAP-43; format: cell-based, human; conditions: 2.5 mM MPTP, compared to MPTP alone, FIG. 6(a)
Method: as §2

[9] = tested on: MAO-B (Monoamine oxidase-B); assay: mRNA expression by real-time PCR in MPTP-treated SH-SY5Y cells: MAO-B; format: cell-based, human; conditions: 2.5 mM MPTP, compared to MPTP alone, FIG. 6(a)
Method: as §2

[10] = tested on: iNOS (inducible nitric oxide synthase); assay: mRNA expression by real-time PCR in MPTP-treated SH-SY5Y cells: iNOS; format: cell-based, human; conditions: 2.5 mM MPTP, compared to MPTP alone, FIG. 6(a)
Method: as §2

[11] = tested on: human neuroblastoma SH-SY5Y cell line; assay: Fluorescence microscopy of Ca2+ and superoxide anions in MPTP-treated SH-SY5Y cells; format: cell-based; conditions: SH-SY5Y after the MPTP treatment; FIG. 6(b)

Structure (SMILES): Cl.NC(=O)CN1C[C@H](c2ccccc2)CC1=O [Ph-20, (S)-2-(2-oxo-4-phenylpyrrolidin-1-yl)acetamide hydrochloride]
- Ca2+ release performance (HEK293T cell line): far superior
- GDF-8/Myostatin level (GDF-8/Myostatin [1]): performed equally or better
- SMAD2 level (SMAD2): effective performance
- SMAD3 level (SMAD3): effective performance
- mRNA expression of SYP (SYP (synaptophysin)): significantly increased
- total distance moved in the open field test ([2]; MPTP mice, ip, FIG. 7(b)): increased
- immobility time in the forced swim test [3]: much shorter
- motility in the rotarod test (latency to fall) [4]: motility was increased
- tibialis anterior (TA) muscle weight [5]: increased by statistically significant levels
- extensor digitorum longus (EDL) muscle weight [5]: increased by statistically significant levels
- total number of convulsive seizures [6]: effectively reduced
- expression level of GDF-8/Myostatin in mouse serum (GDF-8/Myostatin [7]): relatively lower

Structure (SMILES): NNC(=O)CN1C[C@@H](c2ccccc2)CC1=O [Ph-10, (R)-2-(2-oxo-4-phenylpyrrolidin-1-yl)acetohydrazide hydrochloride]
- Ca2+ release performance (HEK293T cell line): far superior
- GDF-8/Myostatin level (GDF-8/Myostatin [1]): performed equally or better
- SMAD2 level (SMAD2): effective performance
- SMAD3 level (SMAD3): effective performance
- mRNA expression of SYP (SYP (synaptophysin)): significantly increased
- mRNA expression of GAP-43 [8]: significantly increased
- mRNA expression of MAO-B [9]: significantly reduced
- mRNA expression of iNOS [10]: significantly reduced
- total distance moved in the open field test ([2]; MPTP mice, ip, FIG. 7(b)): increased
- immobility time in the forced swim test [3]: much shorter
- motility in the rotarod test (latency to fall) [4]: motility was increased
- tibialis anterior (TA) muscle weight [5]: increased by statistically significant levels
- extensor digitorum longus (EDL) muscle weight [5]: increased by statistically significant levels
- expression level of GDF-8/Myostatin in mouse serum (GDF-8/Myostatin [7]): relatively lower

Structure (SMILES): Cl.NC(=O)CN1C[C@@H](c2ccccc2)CC1=O [Ph-30, (R)-2-(2-oxo-4-phenylpyrrolidin-1-yl)acetamide hydrochloride]
- calcium release performance difference, (R)-type Ph-30 compared to (S)-type Ph-20 (HEK293T cell line): ≥ 2 times
- time at which the intensity of intracellular calcium was highest (HEK293T cell line; CLSM, FIG. 1 (Ph-30)): 18 s
- Ca2+ release performance (HEK293T cell line): far superior
- GDF-8/Myostatin level (GDF-8/Myostatin [1]): reduced GDF-8/Myostatin level the most
- SMAD2 level (SMAD2): lowered the SMAD2 and SMAD3 levels the most
- SMAD3 level (SMAD3): lowered the SMAD2 and SMAD3 levels the most
- mRNA expression of SYP (SYP (synaptophysin)): significantly increased
- mRNA expression of MAO-B [9]: significantly reduced
- mRNA expression of iNOS [10]: significantly reduced
- Ca2+ (fluorescence microscopy) [11]: significantly increased
- superoxide anions (fluorescence microscopy) [11]: significantly reduced
- total distance moved in the open field test ([2]; MPTP mice, ip, FIG. 7(b)): increased
- total distance moved relative to the MPTP alone treatment group ([2]; MPTP mice, ip, FIG. 7(b)): approximately three times higher
- distance moved in the open field test ([2]; mice, ip, 5, 10 and 15 mg/kg, compared to the control group, FIG. 7(a)): increased compared to the control group at all concentrations
- immobility time in the forced swim test [3]: much shorter
- immobility time in the forced swim test compared to the untreated control group (saline) [3]: lower immobility time than the untreated control group
- efficacy in the rotarod test compared to the Ph-20 compound ([4]; FIG. 9): approximately twice the efficacy
- motility in the rotarod test (latency to fall) [4]: motility was increased
- tibialis anterior (TA) muscle weight [5]: increased by statistically significant levels
- extensor digitorum longus (EDL) muscle weight [5]: increased by statistically significant levels
- total number of convulsive seizures [6]: significantly lower
- expression level of GDF-8/Myostatin in mouse serum, comparison among the Ph compounds (chirality) (GDF-8/Myostatin [7]): lowest expression levels
- expression level of GDF-8/Myostatin in mouse serum (GDF-8/Myostatin [7]): relatively lower

Structure (SMILES): NC(=O)CN1C[C@@H](c2ccccc2)CC1=O [phenylpiracetam, (R)-phenylpiracetam, reference compound]
- immobility time in the forced swim test [3]: reduced immobility time

Reference: patent US20260076939A1, “CHIRAL GAMMA LACTAM DERIVATIVE OR PHARMACEUTICALLY ACCEPTABLE SALT THEREOF, AND PREPARATION METHOD THEREFOR” (Korea University Research and Business Foundation, priority 2022, published 2026)
